Experimental findings from paper PMC9529094, “Identification of natural cytochalasins as leads for neglected tropical diseases drug discovery” (PLoS ONE, 2022) are described below.

SMILES strings stand for the structures. Read-outs that look alike come from different tables or passages of the source.

The test system of one series is L. infantum. As to the kind of experiment: Screening of natural product collection against L. infantum (cell infection assay). The series is classed as cell-based. The following applies: Leishmania infantum; compound concentration of 50 μM. As for the experimental part: A screening of a natural product collection was performed by using cell assays for infection with Trypanosoma cruzi and Leishmania infantum. The collection includes 320 compounds from the metabolic classes terpenes, alkaloids, peptides and amides that were isolated by plant species or endophytic fungi. For further evaluation in this study, cytochalasins A-D (CAS numbers: CytA: 14110-64-6, CytB: 14930-96-2, CytC: 22144-76-9, CytD: 22144-77-0) were obtained from Sigma-Aldrich (St. Louis, MO, USA). The purity of these compounds was ≥97%. The stock solution of the compounds was prepared in 100% DMSO (dimethyl sulfoxide—Sigma-Aldrich).

Series [1] relates to L. infantum promastigotes. Nature of the series: Leishmanicidal assay using L. infantum promastigotes (resazurin). In kind it is cell-based, Leishmania infantum. As to conditions: 20–2.5 μM, 24 h, Fig 2C. The procedure: Promastigotes of L. infantum (1x10^6 parasites/well) were distributed in 96-well plates, and the test compounds (cytochalasins A-D) were added at concentrations of 20–2.5 μM. The plates were incubated under the same conditions as previously described for 24 h. The leishmanicidal activity was determined by adding 20 μL of resazurin (Sigma-Aldrich), and the plates were incubated for 4 h. The absorbance was measured at 536 and 588 nm in an automated SpectraMax Gemini microplate reader, and the data were analysed using GraphPad Prism version 8.0 for the CC50 value calculation. The percentage of nonviable parasites was determined and compared to the negative control wells.
In general terms: Resazurin is reduced to fluorescent resorufin, in cell work by metabolically active cells.

Series [2] deals with intracellular L. infantum amastigotes. As to the kind of experiment: microbe, parasite or virus in culture. The series is classed as cell-based, Leishmania infantum. As to conditions: for IC50: intracellular amastigotes in THP-1 macrophages, 120 h, read-out: L. infantum IC50 (μM ± SD); for SI^2 (CC50 THP-1/IC50 L. infantum) / SI^4 (CC50 HepG2/IC50 L. infantum): selectivity index. As for the experimental part:
The epimastigote forms of the T. cruzi Tulahuen strain, which expresses the E. coli β-galactosidase gene lacZ [11], were grown in liver infusion tryptone (LIT) supplemented with 10% FCS (Cultilab) and 1% pen/strep (Sigma–Aldrich) at 28°C. Metacyclogenesis from epimastigotes to trypomastigotes was induced by the incubation of the epimastigotes in Grace’s insect medium (Sigma-Aldrich, 28°C) every 5 days. After 5 days, the trypomastigote forms were used to infect the HFF-1 cells. The promastigote forms of L. infantum were maintained in Schneider’s insect medium (Sigma-Aldrich) supplemented with 10% FCS (Cultilab) and 1% pen/strep (Sigma-Aldrich) at 28°C and subcultured every 6 or 7 days.
In the intracellular amastigote assay, THP-1 cells were seeded at 2x10^4/well (RPMI-1640, 100 μL) with phorbol 12-myristate 13-acetate (PMA) at 20 ng/mL for differentiation into macrophages. After incubation for 72 h (5% CO2, 37°C), the medium was aspirated, and late-stage L. infantum promastigotes were added (2x10^5/well, 100 μL). Following 24 h of incubation, the medium was aspirated to clear extracellular parasites, and the compounds were added in serial dilutions (2-fold) to final concentrations of 64–0.12 μM. The plates included negative controls (100% growth) and MIL (64–0.12 μM) as a positive control. After 120 h of incubation, the medium was removed, and the cells were fixed in methanol and stained with Giemsa. The average number of intracellular amastigotes per THP-1-cell was determined using an inverted microscope and a cell counter. Growth inhibition is expressed as a percentage of the average number of amastigotes per macrophage in the negative control wells. The IC50 values were obtained using GraphPad Prism version 8.0.
The analyses were performed using GraphPad Prism version 8.0 (GraphPad Software, San Diego, CA, USA). Both the IC50 and CC50 values were calculated by adjusting the sigmoid dose-response curves, and the selectivity index (SI) values were determined by CC50/IC50 [16]. Statistical analyses were performed using one-way ANOVA followed by Dunnett’s multiple comparison test.

The next series in a line: in vitro. The series is classed as cell-based. The following applies: human; 72 h, resazurin; read-out: THP-1 CC50 (μM ± SD). The procedure:
THP-1 (human monocyte cell line) cells were cultivated in RPMI medium supplemented with 10% foetal calf serum (FCS) (Cultilab, Campinas, SP, BR) and 1% penicillin and streptomycin (pen/strep—Sigma-Aldrich) at 37°C under 5% CO2, and HFF-1 (human fibroblast) and HepG2 (hepatocytes) cells were cultivated in DMEM without phenol red (Cultilab) supplemented with 10% FBS (Sigma-Aldrich) and 1% pen/strep at 37°C under 5% CO2.
THP-1 cells were seeded at 2x10^4/well in 96-well culture plates in RPMI 1640 supplemented (10% FCS, 1% pen/strep) and incubated overnight (37°C, 5% CO2). The compounds were added in 2-fold serial dilutions (64–0.12 μM), and the plates were incubated as described before. Each compound concentration was evaluated in duplicate. All the plates included DOX (Sigma-Aldrich) as a positive control (10–0.01 μM) and untreated wells as a negative control (100% growth). After 72 h, 20 μL of resazurin (Sigma-Aldrich) was added, and the plates were incubated for 4 h. The absorbance was measured at 536 and 588 nm in an automated microplate reader SpectraMax Gemini, and the data were analysed using GraphPad Prism version 8.0 for CC50 value calculation. The percentage of nonviable cells was determined and compared to the negative control wells (100% growth).

Where [3] appears, read: Leishmania infantum, THP-1, 120 h.

What is called inhibition is how much of the control response was suppressed. Read a high inhibition as a response far below the control. For orientation: IC50 means the midpoint of a concentration-inhibition curve. Broadly, the CC50 is the concentration at which the toxic effect on the cells reaches its halfway point.

Take `C=C1[C@@H](C)[C@H]2[C@H](Cc3ccccc3)NC(=O)[C@]23OC(=O)/C=C/C(=O)CCC[C@@H](C)C/C=C/[C@H]3[C@@H]1O` [Cytochalasin A]: in the series on L. infantum, the inhibition at 50 µM was 100%. The “toxicity to L. infantum promastigote parasites” value in series [1] is given as “toxic”. For the same compound, the IC50 in series [2] (setting [3]) turned out to be 2.76 ± 1.17 µM. Moreover, in series [2], the “SI^2 (CC50 THP-1/IC50 L. infantum)” value turned out to be 6.17 and the “SI^4 (CC50 HepG2/IC50 L. infantum)” value stood at 7.65. In addition, the CC50 in the series “in vitro” was found to be 17 ± 1.34 µM.
Regarding `C=C1[C@@H](C)[C@H]2[C@H](Cc3ccccc3)NC(=O)[C@]23OC(=O)/C=C/[C@H](O)CCC[C@@H](C)C/C=C/[C@H]3[C@@H]1O` [Cytochalasin B], testing at 50 µM with L. infantum gave an inhibition of 57.7%. Further, the IC50 in series [2] (setting [3]) is 22 to 23 µM. Moreover, in series [2], the IC50 was determined as 23.9 ± 3.02 µM, the “SI^2 (CC50 THP-1/IC50 L. infantum)” value was 4.57 and the “SI^4 (CC50 HepG2/IC50 L. infantum)” value came out at 1.93. The CC50 in “in vitro” was 109 ± 2.4 µM.
In the series on L. infantum, `CC(=O)OC1C=CC(C)(O)C(=O)C(C)CC=CC2C(O)C(C)=C(C)C3C(Cc4ccccc4)NC(=O)C123` (centres unmarked) [Cytochalasin C] came in with an inhibition at 50 µM of 58.5%. The “toxicity to L. infantum promastigote parasites” value in series [1] was “toxic”. For the same compound, the IC50 in series [2] (setting [3]) was 23.2 ± 4.9 µM. Further, in series [2], the “SI^2 (CC50 THP-1/IC50 L. infantum)” value was found to be 3.65 and the “SI^4 (CC50 HepG2/IC50 L. infantum)” value stood at 0.96. In addition, the CC50 in the series “in vitro” was found to be 84.8 ± 6.84 µM.
For `C=C1[C@@H](C)[C@H]2[C@H](Cc3ccccc3)NC(=O)[C@]23[C@H](OC(C)=O)/C=C/[C@@](C)(O)C(=O)[C@@H](C)C/C=C/[C@H]3[C@@H]1O` [Cytochalasin D], the inhibition at 50 µM in the series on L. infantum was determined as 64.9%. Besides, in series [2] (setting [3]), the IC50 was found to be 22.5 ± 0.97 µM. Further, in series [2], the “SI^2 (CC50 THP-1/IC50 L. infantum)” value stood at 5.42 and the “SI^4 (CC50 HepG2/IC50 L. infantum)” value is 5.46. The CC50 in “in vitro” was determined as 122 ± 11.3 µM.
